Target: T1, human Bradykinin B1 receptor (Homo sapiens, UniProt P46663)
T1 construct: host or cells: CHO-K1
T1 sequence (P46663 1-353): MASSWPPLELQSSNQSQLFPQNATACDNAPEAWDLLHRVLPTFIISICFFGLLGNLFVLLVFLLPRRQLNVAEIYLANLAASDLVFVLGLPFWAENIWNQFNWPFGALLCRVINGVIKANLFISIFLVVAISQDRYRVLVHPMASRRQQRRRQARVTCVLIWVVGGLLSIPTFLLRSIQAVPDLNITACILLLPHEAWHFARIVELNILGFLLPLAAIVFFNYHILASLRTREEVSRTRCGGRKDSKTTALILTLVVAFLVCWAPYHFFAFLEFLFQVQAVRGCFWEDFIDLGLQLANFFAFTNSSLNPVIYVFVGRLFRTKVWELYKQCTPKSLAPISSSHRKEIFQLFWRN
Experiment: Calcium flux Assay (FLIPR) with cells expressing human Bradykinin B1 receptor (hB1)
Format: cell-based
Details: absence of 0.1% BSA in assay buffer; CHO-K1 cell line expressing human B1 receptor; agonist Lys-(Des-Arg)-Bradykinin; read-out: hB1 free IC50
Procedure: The potency to inhibit the Bradykinin B1 receptor was determined for the compound examples of this invention in a cell-based fluorescent calcium-mobilisation assay. The assay measures the ability of compound examples to inhibit Bradykinin B1 receptor agonist-induced increase of intracellular free Ca^2+ in the cell line expressing Bradykinin B1 receptor. Specifically, calcium indicator-loaded cells are pre-incubated in the absence or presence of different concentrations of compound examples followed by the stimulation with a selective Bradykinin B1 receptor agonist peptide. The change of the intracellular Ca^2+ concentration is monitored with a fluorescent plate reader FLIPR^TETRA®
Calcium flux Assays (FLIPR) with cells expressing human Bradykinin B1 receptor (hB1) Calcium flux Assay (FLIPR) with recombinant cells for Bradykinin B1 receptor antagonist, either in the presence (hB1 IC50) or absence (hB1 free IC50) of 0.1% Bovine Serum Albumin (BSA) in assay buffer.
CHO—K1 cell line expressing human B1 receptor was purchased from Euroscreen (Gosselies, Belgium, with reference name hB1-D1). The cells were grown in Nutrient Mixture Ham's F12 (Sigma) containing 10% Foetal bovine serum (Sigma) and 400 μg/mL G418 (Sigma), 5 μg/mL puromycin (Sigma).
For the calcium flux assay, 80% confluent cells were detached from the culture vessels with Versene (Gibco), and seeded into 384-well plates (Cell binding Surface; Corning, N.Y.; #3683) at a density of 15,000 cells per well. Cells were seeded in a volume of 50 μL in medium without antibiotics and incubated overnight in a humidified atmosphere with 5% CO2 at 37° C. […] The calcium indicator loaded cells were incubated at 37° C. for 2 hrs. Extracellular dye was then removed and each well was filled with 45 μL of assay buffer. Cell plates were kept in dark until used. Example compounds were assayed at 8 concentrations in triplicate. Serial 10-fold dilutions in 100% DMSO were made at a 100-times higher concentration than the final concentration, and then diluted 1:10 in assay buffer. 5 μL of each diluted compound was added to the well of cell plates (yielding final concentration with 1% DMSO), and incubated for 30 min at 28° C. before the addition of B1 receptor agonist on the FLIPR instrument.
Agonist plates contained the agonist Lys-(Des-Arg)-Bradykinin (Bachem, Brackley) at 3.5×EC90 in assay buffer with 1% DMSO. The addition of agonist 20 μl per well to the assay plate was carried out on the FLIPR instrument while continuously monitoring Ca^2+-dependent fluorescence at 538 nm. A peptide antagonist Lys-(Des-Arg-Leu)-Bradykinin (Bachem, Brackley) at 20 μM was used to determine the full inhibition as control.
Peak fluorescence was used to determine the response to agonist obtained at each concentration of example compound by the following equation:
% Response=100*(RFU(example compound)−RFU(control))/(RFU(DMSO)−RFU(control)) • RFU means relative fluorescence units. • Control means full inhibition by the peptide antagonist Lys-(Des-Arg-Leu)-Bradykinin at 20
The response values were plotted against the logarithm of the example compound concentrations. The example compounds were tested in triplicates per plate and mean values were plotted in Excel XLfit to determine IC50 values, percentage of maximal inhibition and the Hill slopes.
IC50 values of example compounds in Calcium flux Assay (FLIPR) as shown in table 1 were determined according to the protocol described above in the absence of 0.1% BSA in assay buffer.

IC50 | Structure (SMILES)
3300 nM | CN(C(=O)c1ccc(NC(=O)C2(c3cccc(Cl)c3)CC2)cc1-c1nnn[nH]1)C1CCOCC1 [Example 46, 4-({[1-(3-Chlorophenyl)cyclopropyl]carbonyl}amino)-N-methyl-N-(tetrahydro-2H-pyran-4-yl)-2-(1H-tetrazol-5-yl)benzamide]
1800 nM | CN(CC1CCOCC1)C(=O)c1ccc(NC(=O)C2(c3ccc(C(F)(F)F)cc3F)CC2)cc1-c1nnn[nH]1 [Example 49, 4-[({1-[2-Fluoro-4-(trifluoromethyl)phenyl]cyclopropyl}carbonyl)amino]-N-methyl-N-(tetrahydro-2H-pyran-4-ylmethyl)-2-(1H-tetrazol-5-yl)benzamide]
3 nM | CC(C)COC(=O)c1ccc(NC(=O)C2(c3ccc(C(F)(F)F)cc3F)CC2)cc1-c1nnn[nH]1 [Example 28, Isobutyl 4-[({1-[2-fluoro-4-(trifluoromethyl)phenyl]cyclopropyl}carbonyl)amino]-2-(1H-tetrazol-5-yl)benzoate]
3 nM | CCC(C)OC(=O)c1ccc(NC(=O)C2(c3ccc(OC(F)(F)F)cc3F)CC2)cc1-c1nnn[nH]1 (racemic) [Example 11, sec-Butyl 4-[({1-[2-fluoro-4-(trifluoromethoxy)phenyl]cyclopropyl}carbonyl)amino]-2-(1H-tetrazol-5-yl)benzoate]
5 nM | O=C(OC1CCCCC1)c1ccc(NC(=O)C2(c3ccc(C(F)(F)F)cc3F)CC2)cc1-c1nnn[nH]1 [Example 16, Cyclohexyl 4-[({1-[2-fluoro-4-(trifluoromethyl)phenyl]cyclopropyl}carbonyl)amino]-2-(1H-tetrazol-5-yl)benzoate]
2 nM | O=C(O[C@H]1CCOC1)c1c(F)cc(NC(=O)C2(c3ccc(C(F)(F)F)cc3F)CC2)cc1-c1nnn[nH]1 [Example 62, (3S)-tetrahydrofuran-3-yl 2-fluoro-4-[({1-[2-fluoro-4-(trifluoromethyl)phenyl]cyclopropyl}carbonyl)amino]-6-(1H-tetrazol-5-yl)benzoate]
133 nM | O=C(NC1CCOCC1)c1ccc(NC(=O)C2(c3ccc(C(F)(F)F)cc3F)CC2)cc1-c1nnn[nH]1 [Example 45, 4-[({1-[2-Fluoro-4-(trifluoromethyl)phenyl]cyclopropyl}carbonyl)amino]-N-(tetrahydro-2H-pyran-4-yl)-2-(1H-tetrazol-5-yl)benzamide]
2 nM | O=C(OC1CCC1)c1ccc(NC(=O)C2(c3ccc(C(F)(F)F)cc3F)CC2)cc1-c1nnn[nH]1 [Example 30, Cyclobutyl 4-[({1-[2-fluoro-4-(trifluoromethyl)phenyl]cyclopropyl}carbonyl)amino]-2-(1H-tetrazol-5-yl)benzoate]
10 nM | CCC(C)OC(=O)c1ccc(NC(=O)C2(c3cccc(Cl)c3)CC2)cc1-c1nnn[nH]1 (racemic) [Example 3, sec-Butyl 4-({[1-(3-chlorophenyl)cyclopropyl]carbonyl}amino)-2-(1H-tetrazol-5-yl)benzoate]
13 nM | COCC(C)OC(=O)c1ccc(NC(=O)C2(c3ccc(C(F)(F)F)cc3F)CC2)cc1-c1nnn[nH]1 (racemic) [Example 32, 1-Methoxypropan-2-yl 4-[({1-[2-fluoro-4-(trifluoromethyl)phenyl]cyclopropyl}carbonyl)amino]-2-(1H-tetrazol-5-yl)benzoate]
412 nM | CN(CC1CCCCC1)C(=O)c1ccc(NC(=O)C2(c3ccc(C(F)(F)F)cc3F)CC2)cc1-c1nnn[nH]1 [Example 12, N-(cyclohexylmethyl)-4-[({1-[2-fluoro-4-(trifluoromethyl)phenyl]cyclopropyl}carbonyl)amino]-N-methyl-2-(1H-tetrazol-5-yl)benzamide]
7 nM | O=C(OC1CCOC1)c1ccc(NC(=O)C2(c3ccc(C(F)(F)F)cc3F)CC2)cc1-c1nnn[nH]1 (racemic) [Example 18, Tetrahydrofuran-3-yl 4-[({1-[2-fluoro-4-(trifluoromethyl)phenyl]cyclopropyl}carbonyl)amino]-2-(1H-tetrazol-5-yl)benzoate]
25 nM | Cc1ccc(C2(C(=O)Nc3ccc(C(=O)OC4CCCC4)c(-c4nnn[nH]4)c3)CC2)c(F)c1 [Example 5, Cyclopentyl 4-({[1-(2-fluoro-4-methylphenyl)cyclopropyl]carbonyl}amino)-2-(1H-tetrazol-5-yl)benzoate]
2 nM | CC[C@H](C)OC(=O)c1ccc(NC(=O)C2(c3ccc(OC(F)(F)F)cc3F)CC2)cc1-c1nnn[nH]1 [Example 27, (2S)-Butan-2-yl 4-[({1-[2-fluoro-4-(trifluoromethoxy)phenyl]cyclopropyl}carbonyl)amino]-2-(1H-tetrazol-5-yl)benzoate]
18 nM | O=C(OCC1CCOCC1)c1ccc(NC(=O)C2(c3ccc(C(F)(F)F)cc3F)CC2)cc1-c1nnn[nH]1 [Example 22, Tetrahydro-2H-pyran-4-ylmethyl 4-[({1-[2-fluoro-4-(trifluoromethyl)phenyl]cyclopropyl}carbonyl)amino]-2-(1H-tetrazol-5-yl)benzoate]
2 nM | CC[C@@H](C)OC(=O)c1ccc(NC(=O)C2(c3ccc(C(F)(F)F)cc3F)CC2)cc1-c1nnn[nH]1 [Example 24, (2R)-Butan-2-yl 4-[({1-[2-fluoro-4-(trifluoromethyl)phenyl]cycloproyl}carbonyl)amino]-2-(1H-tetrazol-5-yl)benzoate]
5220 nM | CCC(C)(C)OC(=O)c1ccc(NC(=O)C2(c3ccc(C(F)(F)F)cc3F)CC2)cc1-c1nnn[nH]1 [Example 15, 2-Methylbutan-2-yl 4-[({1-[2-fluoro-4-(trifluoromethyl)phenyl]cyclopropyl}carbonyl)amino]-2-(1H-tetrazol-5-yl)benzoate]
3 nM | CC[C@@H](C)OC(=O)c1ccc(NC(=O)C2(c3ccc(OC(F)(F)F)cc3F)CC2)cc1-c1nnn[nH]1 [Example 26, (2R)-Butan-2-yl 4-[({1-[2-fluoro-4-(trifluoromethoxy)phenyl]cyclopropyl}carbonyl)amino]-2-(1H-tetrazol-5-yl)benzoate]
26 nM | CCOC(=O)c1c(C)cc(NC(=O)C2(c3ccc(C(F)(F)F)cc3F)CC2)cc1-c1nnn[nH]1 [Example 60, Ethyl 4-[({1-[2-fluoro-4-(trifluoromethyl)phenyl]cyclopropyl}carbonyl)amino]-2-methyl-6-(1H-tetrazol-5-yl)benzoate]
34 nM | O=C(NC1CCCCC1)c1ccc(NC(=O)C2(c3ccc(C(F)(F)F)cc3F)CC2)cc1-c1nnn[nH]1 [Example 42, N-cyclohexyl-4-[({1-[2-fluoro-4-(trifluoromethyl)phenyl]cyclopropyl}carbonyl)amino]-2-(1H-tetrazol-5-yl)benzamide]
89 nM | COC[C@@H](C)NC(=O)c1ccc(NC(=O)C2(c3ccc(C(F)(F)F)cc3F)CC2)cc1-c1nnn[nH]1 [Example 50, 4-[({1-[2-Fluoro-4-(trifluoromethyl)phenyl]cyclopropyl}carbonyl)amino]-N-[(2R)-1-methoxypropan-2-yl]-2-(1H-tetrazol-5-yl)benzamide]
9 nM | COC(C)COC(=O)c1ccc(NC(=O)C2(c3ccc(C(F)(F)F)cc3F)CC2)cc1-c1nnn[nH]1 (racemic) [Example 31, 2-Methoxypropyl 4-[({1-[2-fluoro-4-(trifluoromethyl)phenyl]cyclopropyl}carbonyl)amino]-2-(1H-tetrazol-5-yl)benzoate]

— patent US20190177284A1, “TETRAZOLYL-CONTAINING CYCLOPROPANECARBOXAMIDES” (Bayer Pharma Aktiengesellschaft, priority 2017, published 2019)
